According to patent US6620428B1, “Transdermally administered acetylcysteine as mucolytic agent” (Pharmacia AB, priority 1996, dated 2003):
Read-outs that look alike come from different tables or passages of the source.

Experiments:
[1] = format: in vitro ADME; details: pig
Text: Quantitative determination of N-Acetyl-L-cysteine in the receptor solution samples from the skin permeation studies in Example 2 and from the membrane permeation studies in Example 3, and quantitative determination of N-Acetyl-L-cysteine in the samples from the stability studies in Example 6, was done by the HPLC method described under Apparatus.
In vitro permeation of N-Acetyl-L-cysteine from the solutions 1, 2, 3 and 4 through dermatomed pig skin was investigated in Franz diffusion Cells.
Skin pieces with a thickness of approximately 765 μm were dermatomed from full thickness pig skin and mounted in glass diffusion cells with an available diffusion area of 1.8 cm^2. Pig skin is a fully accepted model for human skin. The solutions 1, 2, 3 and 4 were applied separately on the skin surfaces and the dermal sides were all exposed to 12.1 ml receptor solution consisting of 0.0001M hydrochloric acid equilibrated to 37±1° C.
Permeation of N-Acetyl-L-cysteine was followed by removing samples periodically and measuring the concentration by the HPLC method according to Example 1. An increase in the permeated amount of N-Acetyl-L-cysteine is seen in the following order: Propylene glycol, water, ethanol and propylene glycol containing 5% azone added used as solvents. […]

[2] = oral administration, cited from earlier work

Compound: CC(=O)N[C@@H](CS)C(=O)O [N-Acetyl-L-cysteine]
- estimated fluxes of N-Acetyl-L-cysteine through skin [1]: 4-48 μg/cm^2/h
- amount permeated through skin after 20 hours ([1]; 20 h): about 3000 μg/cm^2
- bioavailability when administered perorally [2]: 4%
- bioavailability when administered perorally ([2]; listed as N-Acetyl-cysteine): 4-10%
